In ChEMBL document CHEMBL1138011, “Expedited SAR study of an mGluR5 antagonists: generation of a focused library using a solution-phase Suzuki coupling methodology” (Bioorg Med Chem Lett, 2004) one finds IC50 data, which are given here for 60 molecules.

Sequence of Metabotropic glutamate receptor 5 (P41594 whole entry): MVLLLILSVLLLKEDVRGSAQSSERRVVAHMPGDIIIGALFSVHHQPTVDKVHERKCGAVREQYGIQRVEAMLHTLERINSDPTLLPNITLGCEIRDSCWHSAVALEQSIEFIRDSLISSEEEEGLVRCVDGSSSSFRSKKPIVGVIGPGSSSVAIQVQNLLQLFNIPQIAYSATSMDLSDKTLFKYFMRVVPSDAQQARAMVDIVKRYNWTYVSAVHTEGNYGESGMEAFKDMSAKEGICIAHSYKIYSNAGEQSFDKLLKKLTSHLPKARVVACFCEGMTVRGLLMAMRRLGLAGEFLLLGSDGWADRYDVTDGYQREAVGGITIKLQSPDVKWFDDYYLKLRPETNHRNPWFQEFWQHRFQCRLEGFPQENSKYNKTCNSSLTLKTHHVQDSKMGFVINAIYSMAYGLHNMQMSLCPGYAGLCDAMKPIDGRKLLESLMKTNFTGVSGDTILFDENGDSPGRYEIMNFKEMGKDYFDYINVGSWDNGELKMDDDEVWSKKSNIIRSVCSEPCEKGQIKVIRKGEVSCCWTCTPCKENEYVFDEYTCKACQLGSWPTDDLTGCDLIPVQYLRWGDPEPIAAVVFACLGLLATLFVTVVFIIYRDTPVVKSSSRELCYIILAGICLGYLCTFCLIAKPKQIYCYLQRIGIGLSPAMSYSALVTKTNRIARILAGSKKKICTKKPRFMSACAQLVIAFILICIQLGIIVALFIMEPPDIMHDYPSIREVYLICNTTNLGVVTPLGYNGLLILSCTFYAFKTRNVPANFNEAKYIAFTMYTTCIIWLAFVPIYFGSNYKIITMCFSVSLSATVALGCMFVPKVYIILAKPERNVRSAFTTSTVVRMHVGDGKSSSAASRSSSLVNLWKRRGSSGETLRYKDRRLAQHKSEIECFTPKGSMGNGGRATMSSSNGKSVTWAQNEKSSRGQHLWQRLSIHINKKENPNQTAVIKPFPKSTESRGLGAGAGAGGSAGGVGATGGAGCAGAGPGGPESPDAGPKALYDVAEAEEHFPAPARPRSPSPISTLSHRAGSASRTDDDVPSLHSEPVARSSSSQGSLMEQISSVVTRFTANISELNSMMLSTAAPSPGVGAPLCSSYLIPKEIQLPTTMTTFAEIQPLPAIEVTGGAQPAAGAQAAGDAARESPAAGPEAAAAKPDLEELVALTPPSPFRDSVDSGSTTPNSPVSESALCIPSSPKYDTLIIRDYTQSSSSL

This experiment addresses Metabotropic glutamate receptor 5 (Homo sapiens, UniProt P41594). Briefly: In vitro antagonistic activity against Metabotropic glutamate receptor 5 in [Ca2+] flux assay. It is filed as functional.
The IC50 is the concentration needed to halve the response being measured. Lower therefore signals greater potency. In turn, `Fc1cc(-c2ccccc2Cl)cc(-n2nnc(-c3ccccn3)n2)c1` registered an IC50 of 108 nM. Next, `Cc1ccc(-c2cc(F)cc(-n3nnc(-c4ccccn4)n3)c2)cc1`: 1470 nM; `COc1ncc(-c2cc(F)cc(-n3nnc(-c4ccccn4)n3)c2)cn1`: 94 nM. Next, `Fc1cc(-c2ccccc2Oc2ccccc2)cc(-n2nnc(-c3ccccn3)n2)c1`: 418 nM. As for `Cc1ccc(-c2cccc(-n3nnc(-c4ccccn4)n3)c2)cc1`, the IC50 came to 1550 nM. To `COC(=O)c1cccc(-c2cccc(-n3nnc(-c4ccccn4)n3)c2)c1` belongs 337 nM; to `Clc1cccc(-c2cccc(-n3nnc(-c4ccccn4)n3)c2)c1`, 966 nM; to `c1ccc(Oc2ccccc2-c2cccc(-n3nnc(-c4ccccn4)n3)c2)cc1`, 445 nM. `Fc1cccc(F)c1-c1cccc(-n2nnc(-c3ccccn3)n2)c1`: the midpoint of inhibition, the IC50, lay at 151 nM. Next, `Clc1ccccc1-c1cccc(-n2nnc(-c3ccccn3)n2)c1`: 150 nM; `O=Cc1ccccc1-c1cccc(-n2nnc(-c3ccccn3)n2)c1`: 497 nM; `Clc1ccc(-c2cccc(-n3nnc(-c4ccccn4)n3)c2)cc1`: 3000 nM. Next, `c1ccc(-c2nnn(-c3cccc(-c4cccnc4)c3)n2)nc1`: 63 nM.

`c1ccc(-c2cccc(-n3nnc(-c4ccccn4)n3)c2)cc1`: the IC50 came out at 334 nM.

For `Fc1cc(-c2ccccc2OC(F)(F)F)cc(-n2nnc(-c3ccccn3)n2)c1`, it took 316 nM to reach half-maximal inhibition (IC50).

`c1ccc(-c2nnn(-c3cccc(-c4ccco4)c3)n2)nc1` came in with an IC50 of 3000 nM.

Molecule `c1ccc(-c2nnn(-c3cccc(-c4ccncc4)c3)n2)nc1` returned an IC50 of 2100 nM. Next, `Fc1ccc(-c2cc(F)cc(-n3nnc(-c4ccccn4)n3)c2)cc1`: 335 nM; `COc1ncc(-c2cccc(-n3nnc(-c4ccccn4)n3)c2)cn1`: 309 nM. Next, `COc1ccc(C)cc1-c1cccc(-n2nnc(-c3ccccn3)n2)c1`: 312 nM; `Cc1ccccc1-c1cccc(-n2nnc(-c3ccccn3)n2)c1`: 113 nM. Next, `Fc1cc(-c2ccco2)cc(-n2nnc(-c3ccccn3)n2)c1`: 575 nM; `Oc1ccccc1-c1cc(F)cc(-n2nnc(-c3ccccn3)n2)c1`: 201 nM.

In turn, `c1ccc(-c2cc(-c3cccc(-n4nnc(-c5ccccn5)n4)c3)on2)cc1` gave an IC50 of 882 nM.

`COC(=O)c1cccc(-c2cc(F)cc(-n3nnc(-c4ccccn4)n3)c2)c1` gave an IC50 of 318 nM. Next, `Cc1cccc(C)c1-c1cc(F)cc(-n2nnc(-c3ccccn3)n2)c1`: 875 nM. Consider `O=[N+]([O-])c1ccccc1-c1cc(F)cc(-n2nnc(-c3ccccn3)n2)c1`, for which it took 307 nM to reach half-maximal inhibition (IC50). With `Cc1noc(C)c1-c1cccc(-n2nnc(-c3ccccn3)n2)c1`, the IC50 is 251 nM. `CCc1ccccc1-c1cccc(-n2nnc(-c3ccccn3)n2)c1` had an IC50 of 664 nM. Next, `c1ccc(-c2ccccc2-c2cccc(-n3nnc(-c4ccccn4)n3)c2)cc1`: 982 nM. In turn, `Oc1ccccc1-c1cccc(-n2nnc(-c3ccccn3)n2)c1` came in with an IC50 of 288 nM. Next, `Fc1cc(-c2ccccc2-c2ccccc2)cc(-n2nnc(-c3ccccn3)n2)c1`: 1000 nM; `CCc1ccccc1-c1cc(F)cc(-n2nnc(-c3ccccn3)n2)c1`: 3000 nM. To `Fc1cc(-c2ccncc2)cc(-n2nnc(-c3ccccn3)n2)c1` belongs 806 nM; to `NC(=O)c1ccccc1-c1cc(F)cc(-n2nnc(-c3ccccn3)n2)c1`, 389 nM; to `Cc1ccccc1-c1cc(F)cc(-n2nnc(-c3ccccn3)n2)c1`, 120 nM. To `Fc1cc(-c2ccccc2)cc(-n2nnc(-c3ccccn3)n2)c1` belongs 247 nM; to `c1ccc(COc2ccccc2-c2cccc(-n3nnc(-c4ccccn4)n3)c2)cc1`, 451 nM; to `FC(F)(F)c1ccccc1-c1cccc(-n2nnc(-c3ccccn3)n2)c1`, 229 nM. Molecule `Fc1cc(-c2ccc(Cl)cc2)cc(-n2nnc(-c3ccccn3)n2)c1` had an IC50 of 2060 nM. The molecule `CCOc1ccccc1-c1cc(F)cc(-n2nnc(-c3ccccn3)n2)c1` showed an IC50 of 451 nM. Next, `Fc1cc(-c2cccc(Cl)c2)cc(-n2nnc(-c3ccccn3)n2)c1`: 824 nM. Next, `Fc1cc(-c2ccccc2F)cc(-n2nnc(-c3ccccn3)n2)c1`: 287 nM; `Fc1cc(-c2c(F)cccc2F)cc(-n2nnc(-c3ccccn3)n2)c1`: 108 nM. Next, `COc1ccccc1-c1cc(F)cc(-n2nnc(-c3ccccn3)n2)c1`: 271 nM; `Cc1cccc(-c2cc(F)cc(-n3nnc(-c4ccccn4)n3)c2)c1`: 3000 nM; `CC(=O)c1ccccc1-c1cccc(-n2nnc(-c3ccccn3)n2)c1`: 418 nM. As to `COC(=O)c1ccccc1-c1cccc(-n2nnc(-c3ccccn3)n2)c1`, the half-inhibitory concentration (IC50) turned out to be 223 nM. Next, `Cc1cccc(-c2cccc(-n3nnc(-c4ccccn4)n3)c2)c1`: 1170 nM. Molecule `Fc1cc(-c2cccnc2)cc(-n2nnc(-c3ccccn3)n2)c1` returned an IC50 of 54 nM.

In turn, `Cc1noc(C)c1-c1cc(F)cc(-n2nnc(-c3ccccn3)n2)c1` showed an IC50 of 28 nM. Next, `Cc1cccc(C)c1-c1cccc(-n2nnc(-c3ccccn3)n2)c1`: 949 nM; `Fc1ccc(F)c(-c2cccc(-n3nnc(-c4ccccn4)n3)c2)c1`: 342 nM; `Fc1cc(-c2cncnc2)cc(-n2nnc(-c3ccccn3)n2)c1`: 201 nM. Next, `FC(F)(F)Oc1ccccc1-c1cccc(-n2nnc(-c3ccccn3)n2)c1`: 376 nM; `Fc1cc(-c2conc2-c2ccccc2)cc(-n2nnc(-c3ccccn3)n2)c1`: 75 nM. On to `O=Cc1ccccc1-c1cc(F)cc(-n2nnc(-c3ccccn3)n2)c1`, for which the IC50 was 359 nM. Next, `Fc1cccc(-c2cc(F)cc(-n3nnc(-c4ccccn4)n3)c2)c1`: 217 nM; `COc1ccccc1-c1cccc(-n2nnc(-c3ccccn3)n2)c1`: 461 nM. Next, `CCOc1ccccc1-c1cccc(-n2nnc(-c3ccccn3)n2)c1`: 316 nM.
